From patent US20250353825A1, “CANNABICYCLOL DERIVATIVES AND PREPARATION METHODS THEREOF” (priority 2023, published 2025)

Tests used:
Assay type in all cases: cell-based
A549 = assay: MTS cell viability assay, A549; conditions: Homo sapiens, Table 7, 72 hours, read-out: IC50 against A549
Protocol: (§1) Primary viability screening: (1) the synthesized compounds 3a to 13d were respectively dissolved in DMSO to prepare a 40 μg/mL cannabicyclol and cannabicyclol derivative solutions.
(§2) (2) A control group: a 200 μL DMSO solvent.
(§3) (3) The solutions of compounds 3a to 13d were diluted in a twofold gradient to obtain cannabicyclol and cannabicyclol derivative solutions at concentrations of 40 μg/mL, 20 μg/mL, 10 μg/mL, 5 μg/mL, 2.5 μg/mL, 1.25 μg/mL, and 0.625 μg/mL, and 0.3125 μg/mL, respectively.
(§4) (4) Three glioblastoma stem cells (GSC-3, GSC-12, and GSC-18), three pancreatic cancer cell-derived stem cells (PANC-1-CSC, BXPC-3-CSC, and ASPC1-CSC), three liver cancer cell-derived stem cells (HepG2-CSC, MHCC97H-CSC, and SMMC7721-CSC), HEK-293T cells, 16 tumor cells (U251, U87, T98G, PANC1, BXPC3, ASPC1, HepG2, MHCC97H, SMMC7721, PC3, SKOV3, MDA-MB231, A549, HCT116, HEC-1B, MKN28), and differentiated glioblastoma stem cells (GSC-3diff and GSC-12diff) derived from GSC-3 and GSC-12 (all of the cells were provided by the Laboratory of Tumor Animal Model Preparation and Application Research, West China Hospital, Sichuan University) were inoculated into a 96-well plate at a concentration of 2×10^4 cells/well, and 100 μL of culture medium was then added to each well; […]
(§5) (10) The absorbance value at 490 nm was measured on an enzyme labeling apparatus, and the IC50 value was calculated.

HEC18 = assay: MTS cell viability assay, HEC18; conditions: Table 7, 72 hours; read-out: IC50 against HEC18
Protocol: as §1, §2, §3, §4, §5

SMMC7721-CSC = assay: Soft agar colony (clone) formation, SMMC7721-CSC; conditions: crystal violet, FIG. 4, compound 3a 0, 5 and 5 [sic] μg/mL
Protocol: (§6) […] of low-melting-point agarose was dissolved in 12.5 mL of ddH2O to prepare a 3.2% low-melting-point agarose gel. The low-melting-point agarose gel was sterilized by autoclaving at 121° C. and 0.12 MPa for 20 minutes. After sterilization, the low-melting-point agarose gel was maintained at 60° C. in a drying oven for further use.
(§7) 1.75 mL of 3.2% sterile low-melting-point agarose gel was taken, 5.25 mL of the corresponding complete medium was added, and the two were mixed thoroughly using a pipette to prepare a base gel at a concentration of 0.8%.
(§8) 1 mL of the base gel was added to each well of a 6-well plate, ensuring that the base gel evenly covered the bottom of each well. The plate was placed at 4° C. for 5 minutes to allow the gel to solidify. After the gel had fully solidified, the plate was warmed at 37° C. for 5 minutes.
(§9) 6 cells/cell lines (U251, SMMC7721, GSC-3, GSC-12, SMMC7721-CSC, and HepG2-CSC) were individually digested with 1× trypsin for 3 minutes. The corresponding complete culture medium (same as in the application example 1) was added to terminate the digestion. Cells were centrifuged at 1000 rpm for 3 minutes, and the cells were collected and counted. A total of 5×10^3 cells were added to each well, each group was set up with three replicates. […]

[1] = tested on: liver cancer carcinoma cell line SMMC7721; assay: Soft agar colony (clone) formation, SMMC7721; conditions: crystal violet, FIG. 4, compound 3a 0, 5 and 5 [sic] μg/mL
Protocol: as §6, §7, §8, §9

[2] = tested on: HEK-293T, GSC-3diff, GSC-12diff and 16 tumor cells; assay: MTS cell viability assay, summary over HEK-293T, GSC-3diff, GSC-12diff and 16 tumor cells; conditions: summary of Table 7 in words
Protocol: as §1, §2, §3, §4, §5

For CCCCCc1cc(O)c2c(c1)OC1(C)CCC3C1C2C3(C)C (centres unmarked) [Compound 3a, cannabicyclol], the IC50 (A549) was > 40 µg/mL, the IC50 (HEC18) was > 40 µg/mL and the “colony formation of SMMC7721-CSC” value (SMMC7721-CSC) was “significantly inhibited”. For the same compound, the “colony formation of SMMC7721” value [1] was “significantly inhibited” and the “inhibitory effects on HEK-293T, GSC-3diff, GSC-12diff and the 16 tumor cells” value [2] was “no significant inhibitory effects”.
